In ChEMBL document CHEMBL5465560, “Selectivity Literature for EUbOPEN Chemogenomic Library” (2024):

Key:
[1] = target: Mitogen-activated protein kinase 8 (Homo sapiens, UniProt P45983); assay: Selectivity interaction (Millipore kinase profiler) EUB0000124b MAPK8; conditions: at 10 µM
[2] = target: Transient receptor potential cation channel subfamily M member 6 (Homo sapiens) (UniProt Q9BX84); assay: Selectivity interaction (KinomeScan (DiscoverX)) EUB0000229b TRPM6; conditions: at 10 µM
SRSF protein kinase 1 = SRSF protein kinase 1 (Homo sapiens, UniProt Q96SB4); assay: Selectivity interaction (Ambit KINOMEscan and KiNATiv profiling in Jurkat cells) EUB0000090b SRPK1; type: cell-based; conditions: at 1 µM
[3] = target: T1, MAP kinase-activated protein kinase 5 (Homo sapiens) (UniProt Q8IW41); assay: Selectivity interaction (KinomeScan (DiscoverX)) EUB0000618a MAPKAPK5; conditions: at 10 µM
T1 sequence (whole entry): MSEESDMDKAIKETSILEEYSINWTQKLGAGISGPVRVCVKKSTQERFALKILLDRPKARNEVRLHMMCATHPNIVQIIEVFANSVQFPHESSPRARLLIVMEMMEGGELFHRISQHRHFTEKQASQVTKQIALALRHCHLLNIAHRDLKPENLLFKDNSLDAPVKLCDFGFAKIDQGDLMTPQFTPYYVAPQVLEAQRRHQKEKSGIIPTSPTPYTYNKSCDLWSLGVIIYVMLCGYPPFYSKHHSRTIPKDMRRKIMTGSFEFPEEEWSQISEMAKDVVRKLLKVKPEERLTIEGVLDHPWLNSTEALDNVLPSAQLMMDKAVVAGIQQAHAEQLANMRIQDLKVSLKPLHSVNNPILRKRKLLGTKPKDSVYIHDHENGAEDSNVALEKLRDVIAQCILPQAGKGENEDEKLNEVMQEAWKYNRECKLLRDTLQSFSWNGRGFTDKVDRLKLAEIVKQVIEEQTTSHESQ

[4] = target: T2, cGMP-dependent protein kinase 2 (Homo sapiens) (UniProt Q13237); conditions: at 10 µM
T2 sequence (whole entry): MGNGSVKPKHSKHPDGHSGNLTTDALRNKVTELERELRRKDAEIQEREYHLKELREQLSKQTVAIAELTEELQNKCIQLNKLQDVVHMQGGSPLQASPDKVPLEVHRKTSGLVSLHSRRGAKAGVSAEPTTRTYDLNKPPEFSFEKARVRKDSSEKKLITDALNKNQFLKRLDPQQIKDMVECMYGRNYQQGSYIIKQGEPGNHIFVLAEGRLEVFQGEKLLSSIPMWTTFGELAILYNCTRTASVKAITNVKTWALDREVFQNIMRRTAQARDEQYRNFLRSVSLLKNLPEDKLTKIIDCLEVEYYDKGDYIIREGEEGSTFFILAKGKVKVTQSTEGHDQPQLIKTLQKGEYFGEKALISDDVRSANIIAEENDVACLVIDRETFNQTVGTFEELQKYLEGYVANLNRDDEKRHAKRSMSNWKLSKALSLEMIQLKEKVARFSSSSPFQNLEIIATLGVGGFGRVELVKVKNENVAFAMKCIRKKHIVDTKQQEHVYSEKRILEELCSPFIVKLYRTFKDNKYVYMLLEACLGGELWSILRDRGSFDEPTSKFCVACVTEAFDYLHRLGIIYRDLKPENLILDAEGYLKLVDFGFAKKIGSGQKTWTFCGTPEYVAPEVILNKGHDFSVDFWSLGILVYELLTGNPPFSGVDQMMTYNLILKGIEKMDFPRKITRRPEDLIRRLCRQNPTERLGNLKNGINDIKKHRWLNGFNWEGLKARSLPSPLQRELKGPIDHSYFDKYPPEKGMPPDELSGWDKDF

[5] = target: Death-associated protein kinase 2 (Homo sapiens) (UniProt Q9UIK4); conditions: at 10 µM
[6] = target: Protein kinase C theta type (Homo sapiens, UniProt Q04759); assay: Selectivity interaction (Upstate Kinase Profiler service (Millipore)) EUB0000056c PRKCQ; conditions: at 1 µM
[7] = target: Serine/threonine-protein kinase PLK2 (Homo sapiens, UniProt Q9NYY3); assay: Selectivity interaction (Upstate Kinase Profiler service (Millipore)) EUB0000056c PLK2; conditions: at 1 µM
[8] = target: Dual specificity mitogen-activated protein kinase kinase 1 (Homo sapiens, UniProt Q02750); assay: Selectivity interaction (KinomeScan (DiscoverX)) EUB0000655a MAP2K1; conditions: at 10 µM
[9] = target: T3, Serine/threonine-protein kinase tousled-like 1 (Homo sapiens) (UniProt Q9UKI8); assay: Selectivity interaction (KinomeScan (DiscoverX)) EUB0000655a TLK1; conditions: at 10 µM
T3 sequence (whole entry): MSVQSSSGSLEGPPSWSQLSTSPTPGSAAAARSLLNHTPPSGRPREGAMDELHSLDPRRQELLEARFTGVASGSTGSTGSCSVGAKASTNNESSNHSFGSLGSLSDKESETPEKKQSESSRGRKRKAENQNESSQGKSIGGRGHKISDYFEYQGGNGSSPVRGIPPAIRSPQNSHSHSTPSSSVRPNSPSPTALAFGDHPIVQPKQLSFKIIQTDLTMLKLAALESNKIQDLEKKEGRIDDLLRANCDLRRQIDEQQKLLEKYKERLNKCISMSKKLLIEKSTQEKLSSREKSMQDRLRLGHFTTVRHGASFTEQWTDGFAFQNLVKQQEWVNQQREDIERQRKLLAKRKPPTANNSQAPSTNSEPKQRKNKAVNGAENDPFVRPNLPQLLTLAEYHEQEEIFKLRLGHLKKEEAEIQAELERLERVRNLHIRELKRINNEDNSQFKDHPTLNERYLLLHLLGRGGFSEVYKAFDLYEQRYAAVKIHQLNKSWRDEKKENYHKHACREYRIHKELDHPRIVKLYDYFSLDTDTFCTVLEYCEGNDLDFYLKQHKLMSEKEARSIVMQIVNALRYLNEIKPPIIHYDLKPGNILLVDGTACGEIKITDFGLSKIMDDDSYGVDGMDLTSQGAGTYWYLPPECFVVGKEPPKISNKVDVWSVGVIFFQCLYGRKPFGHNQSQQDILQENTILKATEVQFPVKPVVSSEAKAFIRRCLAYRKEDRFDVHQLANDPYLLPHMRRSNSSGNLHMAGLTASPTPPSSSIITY

[10] = target: Tyrosine-protein kinase Blk (Homo sapiens) (UniProt P51451); assay: Selectivity interaction (SelectScreen profiling (Invitrogen)) EUB0000607a BLK; conditions: at 2 µM
[11] = target: Bone morphogenetic protein receptor type-1B (Homo sapiens, UniProt O00238); assay: Selectivity interaction (KinomeScan (DiscoverX)) EUB0000607a BMPR1B; conditions: at 10 µM
PXR (NR1I2) = PXR (NR1I2) (Homo sapiens, UniProt O75469); assay: Selectivity interaction (Panel of kinases, GPCRs, ion channels and transporters (enzymatic assay)) EUB0000223bCl NR1I2
[12] = target: Serine/threonine-protein kinase B-raf (Homo sapiens) (UniProt P15056); assay: (§1) Selectivity interaction (ProQinase) EUB0000171b BRAF
[13] = test system: Serine/threonine-protein kinase B-raf (Homo sapiens), P15056 [V600E]; assay: as §1
Sequence of Serine/threonine-protein kinase B-raf (Homo sapiens), P15056 [V600E] (P15056 whole entry V600E): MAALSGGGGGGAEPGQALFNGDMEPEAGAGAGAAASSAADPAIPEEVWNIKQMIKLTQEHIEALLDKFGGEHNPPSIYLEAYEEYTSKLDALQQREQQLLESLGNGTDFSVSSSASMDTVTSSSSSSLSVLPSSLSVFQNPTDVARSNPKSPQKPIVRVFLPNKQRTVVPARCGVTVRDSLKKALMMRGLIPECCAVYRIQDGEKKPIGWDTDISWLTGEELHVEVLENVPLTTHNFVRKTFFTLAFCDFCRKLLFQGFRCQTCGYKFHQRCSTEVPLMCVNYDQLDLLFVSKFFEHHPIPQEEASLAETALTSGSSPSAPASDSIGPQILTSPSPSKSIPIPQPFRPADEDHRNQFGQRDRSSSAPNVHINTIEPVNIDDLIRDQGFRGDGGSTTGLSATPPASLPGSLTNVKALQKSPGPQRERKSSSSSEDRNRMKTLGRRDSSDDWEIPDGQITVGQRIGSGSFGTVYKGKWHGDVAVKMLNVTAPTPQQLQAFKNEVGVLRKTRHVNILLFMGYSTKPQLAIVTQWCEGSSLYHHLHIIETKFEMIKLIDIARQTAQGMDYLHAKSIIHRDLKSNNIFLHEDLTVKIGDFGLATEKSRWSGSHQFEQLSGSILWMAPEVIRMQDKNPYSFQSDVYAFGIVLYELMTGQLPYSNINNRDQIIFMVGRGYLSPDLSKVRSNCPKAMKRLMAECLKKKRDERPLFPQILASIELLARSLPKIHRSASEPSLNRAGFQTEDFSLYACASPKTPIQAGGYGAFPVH

Sequence of Serine/threonine-protein kinase B-raf (Homo sapiens) (P15056 whole entry): as the sequence (P15056 whole entry V600E) above, with E600V counted along it
Sequence of PXR (NR1I2) (O75469 whole entry): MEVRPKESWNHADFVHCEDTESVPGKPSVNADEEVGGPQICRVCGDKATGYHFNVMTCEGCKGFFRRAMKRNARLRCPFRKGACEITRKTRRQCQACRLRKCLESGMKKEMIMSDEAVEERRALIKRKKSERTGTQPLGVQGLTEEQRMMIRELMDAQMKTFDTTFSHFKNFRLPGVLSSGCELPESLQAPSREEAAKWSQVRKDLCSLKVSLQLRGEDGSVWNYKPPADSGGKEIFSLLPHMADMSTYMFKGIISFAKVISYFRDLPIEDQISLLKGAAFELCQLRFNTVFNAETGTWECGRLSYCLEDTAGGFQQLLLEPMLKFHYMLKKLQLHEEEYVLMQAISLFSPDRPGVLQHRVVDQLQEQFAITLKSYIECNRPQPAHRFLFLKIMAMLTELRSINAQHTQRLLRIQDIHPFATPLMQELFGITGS
Sequence of Transient receptor potential cation channel subfamily M member 6 (Homo sapiens) (Q9BX84 whole entry): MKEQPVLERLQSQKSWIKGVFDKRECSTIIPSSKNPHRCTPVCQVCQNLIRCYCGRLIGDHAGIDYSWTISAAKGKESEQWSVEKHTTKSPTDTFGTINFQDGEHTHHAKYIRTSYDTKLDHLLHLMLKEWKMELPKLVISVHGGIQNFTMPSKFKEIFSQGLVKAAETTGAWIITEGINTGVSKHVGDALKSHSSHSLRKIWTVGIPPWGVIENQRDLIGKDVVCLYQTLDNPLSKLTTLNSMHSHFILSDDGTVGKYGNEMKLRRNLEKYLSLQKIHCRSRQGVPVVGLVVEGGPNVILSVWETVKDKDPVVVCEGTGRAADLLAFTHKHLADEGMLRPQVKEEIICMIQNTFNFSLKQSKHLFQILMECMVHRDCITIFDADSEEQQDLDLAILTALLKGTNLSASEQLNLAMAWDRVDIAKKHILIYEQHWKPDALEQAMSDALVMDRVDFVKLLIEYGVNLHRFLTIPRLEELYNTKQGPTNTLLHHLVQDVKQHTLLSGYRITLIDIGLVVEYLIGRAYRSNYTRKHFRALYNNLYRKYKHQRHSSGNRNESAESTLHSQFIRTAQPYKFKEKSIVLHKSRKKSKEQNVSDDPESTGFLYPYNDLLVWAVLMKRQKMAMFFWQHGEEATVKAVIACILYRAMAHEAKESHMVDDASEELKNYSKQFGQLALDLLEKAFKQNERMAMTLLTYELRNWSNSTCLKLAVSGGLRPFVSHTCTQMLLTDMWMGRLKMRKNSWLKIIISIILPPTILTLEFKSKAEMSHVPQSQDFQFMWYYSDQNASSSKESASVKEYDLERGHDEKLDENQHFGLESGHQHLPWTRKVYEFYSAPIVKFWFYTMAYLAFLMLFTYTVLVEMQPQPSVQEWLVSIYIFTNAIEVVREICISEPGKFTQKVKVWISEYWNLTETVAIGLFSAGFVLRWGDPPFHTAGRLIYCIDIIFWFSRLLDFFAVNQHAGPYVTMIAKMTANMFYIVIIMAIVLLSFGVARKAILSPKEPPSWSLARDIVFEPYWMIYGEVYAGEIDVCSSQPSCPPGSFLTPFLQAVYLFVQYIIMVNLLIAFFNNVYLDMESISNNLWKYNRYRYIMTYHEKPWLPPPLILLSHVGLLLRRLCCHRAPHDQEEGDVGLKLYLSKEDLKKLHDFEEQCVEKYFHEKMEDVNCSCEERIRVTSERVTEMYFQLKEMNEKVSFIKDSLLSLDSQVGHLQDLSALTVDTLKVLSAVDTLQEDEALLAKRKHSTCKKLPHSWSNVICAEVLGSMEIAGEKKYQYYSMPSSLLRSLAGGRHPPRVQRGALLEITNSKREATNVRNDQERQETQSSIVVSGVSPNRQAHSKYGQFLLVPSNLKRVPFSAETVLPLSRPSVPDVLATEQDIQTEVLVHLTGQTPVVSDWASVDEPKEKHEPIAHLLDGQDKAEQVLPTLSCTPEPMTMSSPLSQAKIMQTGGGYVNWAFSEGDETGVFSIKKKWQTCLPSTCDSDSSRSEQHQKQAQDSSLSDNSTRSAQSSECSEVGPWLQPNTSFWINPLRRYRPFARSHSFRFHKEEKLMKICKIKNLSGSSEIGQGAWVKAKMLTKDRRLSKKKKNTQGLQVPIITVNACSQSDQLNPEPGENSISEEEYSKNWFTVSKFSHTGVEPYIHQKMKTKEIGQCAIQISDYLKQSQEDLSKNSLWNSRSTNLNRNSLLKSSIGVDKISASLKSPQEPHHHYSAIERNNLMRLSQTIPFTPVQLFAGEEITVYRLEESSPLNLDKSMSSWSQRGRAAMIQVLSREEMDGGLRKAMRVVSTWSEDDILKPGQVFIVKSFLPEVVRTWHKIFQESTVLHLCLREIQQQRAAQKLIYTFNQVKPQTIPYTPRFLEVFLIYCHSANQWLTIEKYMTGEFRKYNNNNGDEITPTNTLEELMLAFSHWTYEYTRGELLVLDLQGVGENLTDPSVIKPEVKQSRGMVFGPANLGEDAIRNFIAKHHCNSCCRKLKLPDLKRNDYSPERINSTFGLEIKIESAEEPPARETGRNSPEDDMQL
Sequence of Death-associated protein kinase 2 (Homo sapiens) (Q9UIK4 whole entry, looked up): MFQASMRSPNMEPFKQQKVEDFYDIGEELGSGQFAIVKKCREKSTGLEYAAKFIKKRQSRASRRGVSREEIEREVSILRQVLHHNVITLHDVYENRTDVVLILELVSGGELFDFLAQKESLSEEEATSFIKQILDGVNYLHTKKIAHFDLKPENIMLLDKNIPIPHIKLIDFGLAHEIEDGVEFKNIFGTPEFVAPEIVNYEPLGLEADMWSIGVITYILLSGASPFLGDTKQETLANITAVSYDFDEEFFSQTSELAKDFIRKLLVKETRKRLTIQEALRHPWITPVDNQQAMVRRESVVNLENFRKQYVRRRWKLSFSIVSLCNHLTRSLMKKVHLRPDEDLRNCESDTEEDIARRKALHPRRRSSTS
Sequence of Dual specificity mitogen-activated protein kinase kinase 1 (Q02750 whole entry): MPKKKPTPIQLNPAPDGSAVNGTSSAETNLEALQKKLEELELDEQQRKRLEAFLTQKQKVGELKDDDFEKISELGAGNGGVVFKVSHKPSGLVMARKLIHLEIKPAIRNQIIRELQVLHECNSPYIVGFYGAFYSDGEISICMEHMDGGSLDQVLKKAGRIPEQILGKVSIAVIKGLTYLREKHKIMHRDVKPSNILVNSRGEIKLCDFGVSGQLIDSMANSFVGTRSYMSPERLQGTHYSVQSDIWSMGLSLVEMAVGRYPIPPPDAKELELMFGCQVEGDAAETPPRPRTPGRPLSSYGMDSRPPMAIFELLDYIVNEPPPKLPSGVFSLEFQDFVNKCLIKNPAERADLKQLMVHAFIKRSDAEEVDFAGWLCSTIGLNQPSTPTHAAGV
Sequence of SRSF protein kinase 1 (Q96SB4 whole entry): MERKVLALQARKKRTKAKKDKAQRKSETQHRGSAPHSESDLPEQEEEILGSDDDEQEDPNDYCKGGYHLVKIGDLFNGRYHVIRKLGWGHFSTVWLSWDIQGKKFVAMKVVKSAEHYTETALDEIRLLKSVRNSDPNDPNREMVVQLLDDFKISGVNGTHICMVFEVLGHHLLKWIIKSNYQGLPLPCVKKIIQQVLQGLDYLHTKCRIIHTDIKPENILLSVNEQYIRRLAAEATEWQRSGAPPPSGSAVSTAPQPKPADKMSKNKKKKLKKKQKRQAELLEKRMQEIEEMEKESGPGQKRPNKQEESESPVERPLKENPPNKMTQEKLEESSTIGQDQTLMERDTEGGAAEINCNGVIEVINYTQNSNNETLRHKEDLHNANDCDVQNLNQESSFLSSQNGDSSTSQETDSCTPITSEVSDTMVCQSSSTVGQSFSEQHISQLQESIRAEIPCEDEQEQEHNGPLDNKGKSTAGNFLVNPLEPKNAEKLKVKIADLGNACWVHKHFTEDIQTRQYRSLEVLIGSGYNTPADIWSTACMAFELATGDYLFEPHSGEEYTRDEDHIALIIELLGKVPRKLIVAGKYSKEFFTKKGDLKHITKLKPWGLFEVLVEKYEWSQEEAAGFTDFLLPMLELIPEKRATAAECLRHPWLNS

Structure (SMILES): CC(=O)Nc1cccc(-n2c(=O)n(C3CC3)c(=O)c3c(Nc4ccc(I)cc4F)n(C)c(=O)c(C)c32)c1
- % of control [1]: 104%

Structure (SMILES): COc1cc(N(C)c2ccnc3ccc(C(F)(F)F)cc23)cc(OC)c1OC
- % binding [2]: 100%

Structure (SMILES): CN(C)C/C=C/C(=O)Nc1ccc(C(=O)N2CCCC(Nc3ncc(Cl)c(-c4c[nH]c5ccccc45)n3)C2)cc1 (configuration not stated)
- % of control (SRSF protein kinase 1): 52%

Structure (SMILES): O[C@H]1CC[C@H](Nc2ncc3nc(Nc4c(F)cc(F)cc4F)n([C@H]4CCOC4)c3n2)CC1
- % of control [3]: 100%

Structure (SMILES): Cc1cc([C@@H](C)Nc2ccccc2C(=O)O)c2nc(N3CCOCC3)cc(=O)n2c1 [AZD-6482]
- % of control [4]: 98%
- % of control [5]: 92%

Structure (SMILES): Cc1ccc(-c2ccc3c(ccc4sc5c(c43)NC[C@@H](C)NC5=O)n2)cn1
- % of inhibition [6]: 27%
- % of inhibition [7]: -19%

Structure (SMILES): CN(C)CCOc1ccc(-c2nc(-c3ccncc3)c(-c3ccc4c(c3)CC/C4=N\O)[nH]2)cc1
- % of control [8]: 99%
- % of control [9]: 99%

Structure (SMILES): CNC(=O)Nc1ccc(-c2nc(N3CC4CCC(C3)O4)c3cnn(C4CCC5(CC4)OCCO5)c3n2)cc1
- % of inhibition [10]: 1%
- % of control [11]: 93%

Structure (SMILES): COc1cc(C(=O)N2CC[C@@H](O)[C@@H](N)C2)cc2nc(-c3cc4ccccc4n3CC3CC3)n(C)c12
- XC50 (PXR (NR1I2)): > 50.1 µM

Structure (SMILES): C=CC(=O)Nc1cccc(C(=O)Nc2ccc(Nc3cc(-c4[nH]c(SC)nc4C)ccn3)cc2)c1
- % of control ([12]; at 1 µM): 96%
- % of control ([12]; at 5 µM): 82%
- % of control ([13]; at 1 µM): 110%
- % of control ([13]; at 5 µM): 113%
